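Where inhibition never reached the appropriate level, the endpoint shown equals the highest concentration tested. Otherwise, values were interpolated linearly from a five-concentration, 48-hour dose response in 96-well plates. At the GI50, growth is halved.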 Activity calls are given as the source filed them. Rule as the data show it: active = GI50 up to about 1.1 µM and inactive = higher.

Some test systems named below: SF-539; MDA-MB-435; 786-0; UO-31; COLO 205; HL-60; OVCAR-8; NCI/ADR-RES; ACHN; HOP-92; SNB-19; NCI-H226; SNB-75; PC-3; SK-MEL-5; SW-620; NCI-H522; HOP-62; U-251; DMS-114.
Holding throughout (test): inhibition of tumour cell growth, NCI panel, 48 h

Consider `O=C(c1ccccc1)c1sc2c(=O)c(C(=O)c3ccccc3)c(C(=O)c3ccccc3)sc2c(=O)c1C(=O)c1ccccc1`, for which the GI50 with SF-539 is 23.6 µM (inactive); with MDA-MB-435, 27.1 µM (inactive); in the experiment on 786-0, 32.1 µM (inactive); with UO-31, 5.97 µM (inactive); in the experiment with COLO 205, > 100 µM (inactive); in the experiment on HL-60 it was 21.5 µM (inactive). Besides, the GI50 with OVCAR-8 is 35.4 µM (inactive); in the experiment with NCI/ADR-RES, 24.5 µM (inactive); in the experiment with ACHN, 51.9 µM (inactive); in the experiment with HOP-92 it was 37.2 µM (inactive); in the experiment with SNB-19, 55.3 µM (inactive); in the experiment with NCI-H226, 82.4 µM (inactive). Besides, the GI50 is 24.5 µM (inactive) in the experiment with SNB-75; > 100 µM (inactive) with PC-3; 32 µM (inactive) in the experiment with SK-MEL-5; 21.8 µM (inactive) with SW-620; 18 µM (inactive) in the experiment with NCI-H522; 51.1 µM (inactive) with HOP-62. The GI50 in the experiment on U-251 is 44.3 µM (inactive).
Consider `O=C(N/C(=C\c1ccc(/C=C(\NC(=O)c2ccccc2)c2nc3c(O)nc(S)nc3[nH]2)cc1)c1nc2c(O)nc(S)nc2[nH]1)c1ccccc1`, for which the GI50 in the experiment with SF-539 was 61.9 µM (inactive); with 786-0, > 100 µM (inactive); in the experiment with UO-31 it was > 100 µM (inactive); in the experiment with COLO 205 it was > 100 µM (inactive); in the experiment with OVCAR-8 it was 74.6 µM (inactive); with ACHN, 95.7 µM (inactive). The GI50 with HOP-92 is > 100 µM (inactive); with SNB-19 it was > 100 µM (inactive); with SNB-75 it was 26.4 µM (inactive); with SK-MEL-5, 64.4 µM (inactive); with SW-620, 46.6 µM (inactive); in the experiment with NCI-H522, 14.6 µM (inactive). Moreover, the GI50 in the experiment on HOP-62 is > 100 µM (inactive); with DMS-114, 34.3 µM (inactive); in the experiment with U-251, > 100 µM (inactive).
With `Clc1ccc(/C(=C/c2ccccc2)Cn2ccnc2)cc1`, the GI50 in the experiment on SF-539 was 24 µM (inactive); in the experiment on MDA-MB-435, 19.9 µM (inactive); in the experiment on 786-0, 30.5 µM (inactive); in the experiment with UO-31, 3.39 µM (inactive); with COLO 205 it was 18.6 µM (inactive); with HL-60 it was 14.3 µM (inactive). For the same compound, the GI50 was 26.9 µM (inactive) in the experiment with OVCAR-8; 20.4 µM (inactive) in the experiment on NCI/ADR-RES; 16.6 µM (inactive) in the experiment on ACHN; 12.7 µM (inactive) in the experiment with HOP-92; 12 µM (inactive) in the experiment with SNB-19; 12.9 µM (inactive) in the experiment on NCI-H226. Besides, the GI50 with SNB-75 was 18.6 µM (inactive); with PC-3, 13.6 µM (inactive); in the experiment on SK-MEL-5, 11.1 µM (inactive); with SW-620, 27.6 µM (inactive); in the experiment on NCI-H522, 11.9 µM (inactive); in the experiment on HOP-62, 89.1 µM (inactive). Further, the GI50 in the experiment with U-251 is 21.8 µM (inactive).
On to `CN(C)CC1CCC/C(=C\c2ccc(Cl)cc2)C1=O` (configuration not stated), for which the GI50 with SF-539 is 10.6 µM (inactive); with MDA-MB-435, 3.83 µM (inactive); in the experiment with 786-0, 1.68 µM (inactive); in the experiment with UO-31, 2.25 µM (inactive); in the experiment with COLO 205 it was 2.12 µM (inactive); in the experiment with HL-60, 1.37 µM (inactive). The GI50 in the experiment on OVCAR-8 is 3.85 µM (inactive); with NCI/ADR-RES it was 3.62 µM (inactive); with ACHN, 2.57 µM (inactive); with HOP-92, 3.15 µM (inactive); in the experiment on SNB-19, 11.8 µM (inactive); with NCI-H226, 14.7 µM (inactive). Also, the GI50 was 3.25 µM (inactive) in the experiment on SNB-75; 2.67 µM (inactive) in the experiment with PC-3; 4 µM (inactive) in the experiment on SK-MEL-5; 1.93 µM (inactive) in the experiment with SW-620; 1.75 µM (inactive) in the experiment on NCI-H522; 15.8 µM (inactive) with HOP-62. Moreover, the GI50 with U-251 is 3.71 µM (inactive).
Consider `COc1cc(C(C)O)c[n+](CCC2CNc3ccccc32)c1` (configuration not stated), for which the GI50 in the experiment with SF-539 is > 100 µM (inactive); in the experiment with 786-0, > 100 µM (inactive); with UO-31, > 100 µM (inactive); in the experiment on COLO 205, 43.3 µM (inactive); with HL-60, > 100 µM (inactive); in the experiment on OVCAR-8 it was > 100 µM (inactive). For the same compound, the GI50 with ACHN was > 100 µM (inactive); in the experiment on SNB-19, > 100 µM (inactive); with NCI-H226, 73.1 µM (inactive); in the experiment with SNB-75, > 100 µM (inactive); in the experiment on SK-MEL-5, > 100 µM (inactive); in the experiment on SW-620, > 100 µM (inactive). Also, the GI50 with NCI-H522 was > 100 µM (inactive); in the experiment on HOP-62, > 100 µM (inactive); in the experiment with DMS-114, 91.4 µM (inactive); in the experiment with U-251 it was > 100 µM (inactive).
On to `Cc1ccc(S(=O)(=O)OCC23CCC(C2)C2CC23)cc1` (configuration not stated), for which the GI50 in the experiment on 786-0 was > 100 µM (inactive); in the experiment with UO-31, > 100 µM (inactive); with COLO 205, > 100 µM (inactive); with HL-60, 31.6 µM (inactive); in the experiment on OVCAR-8 it was > 100 µM (inactive); with ACHN, > 100 µM (inactive). The GI50 in the experiment with HOP-92 is 26 µM (inactive); in the experiment with SNB-19, > 100 µM (inactive); in the experiment on NCI-H226 it was > 100 µM (inactive); in the experiment on SK-MEL-5, > 100 µM (inactive); in the experiment with SW-620, > 100 µM (inactive); in the experiment with HOP-62, > 100 µM (inactive). Also, the GI50 with DMS-114 and in the experiment with U-251 was > 100 µM (inactive) each time.
Consider `OCC1OC(n2cnc3cccnc32)CC1O` (configuration not stated), for which the GI50 in the experiment on SF-539, in the experiment on MDA-MB-435, in the experiment with 786-0, in the experiment on UO-31, with COLO 205 and in the experiment with HL-60 was > 100 µM (inactive) each time. Moreover, the GI50 with OVCAR-8, in the experiment with NCI/ADR-RES, with ACHN, with HOP-92, in the experiment on SNB-19 and with NCI-H226 was > 100 µM (inactive) each time. Moreover, the GI50 with SNB-75 is 7.76 µM (inactive); with PC-3, > 100 µM (inactive); in the experiment on SK-MEL-5 it was > 100 µM (inactive); in the experiment with SW-620 it was > 100 µM (inactive); with NCI-H522, > 100 µM (inactive); with HOP-62 it was > 100 µM (inactive). For the same compound, the GI50 in the experiment on U-251 is > 100 µM (inactive).
Regarding `NC1NCCC(=O)N1CCc1c[nH]c2ccccc12` (configuration not stated), the GI50 in the experiment with SF-539 was 16.7 µM (inactive); with MDA-MB-435 it was 17 µM (inactive); in the experiment on 786-0 it was 20 µM (inactive); in the experiment on UO-31 it was 41.6 µM (inactive); with COLO 205 it was 18.3 µM (inactive); with HL-60, 24.8 µM (inactive). Further, the GI50 in the experiment on OVCAR-8 is 39.7 µM (inactive); with NCI/ADR-RES, 24.5 µM (inactive); with ACHN, 24.6 µM (inactive); in the experiment with HOP-92, 31.1 µM (inactive); with SNB-19, 33.7 µM (inactive); in the experiment on NCI-H226 it was 28.7 µM (inactive). Also, the GI50 in the experiment with SNB-75 is 6.98 µM (inactive); in the experiment with PC-3, 19.3 µM (inactive); in the experiment with SK-MEL-5 it was 16.9 µM (inactive); in the experiment with SW-620 it was 21.3 µM (inactive); in the experiment on NCI-H522, 87.5 µM (inactive); with HOP-62, 19.2 µM (inactive). In addition, in the experiment on U-251, the GI50 is 65.2 µM (inactive).
For the compound `Nc1ccc2c(=S)c3ccccc3[nH]c2c1`, the GI50 in the experiment on SF-539 is 33.2 µM (inactive); in the experiment on MDA-MB-435 it was 42.2 µM (inactive); with 786-0, 38.5 µM (inactive); in the experiment on UO-31, 27.9 µM (inactive); in the experiment with COLO 205, 24.5 µM (inactive); in the experiment on HL-60 it was 16.2 µM (inactive). Further, the GI50 in the experiment on OVCAR-8 was 52.5 µM (inactive); in the experiment on NCI/ADR-RES, 43.3 µM (inactive); with ACHN, 38.1 µM (inactive); in the experiment with HOP-92, 26.2 µM (inactive); in the experiment with SNB-19 it was 41.6 µM (inactive); in the experiment on NCI-H226, 24.1 µM (inactive). The GI50 is 18.7 µM (inactive) in the experiment with SNB-75; 34 µM (inactive) in the experiment with PC-3; 33.5 µM (inactive) in the experiment with SK-MEL-5; 32.5 µM (inactive) with SW-620; 46.8 µM (inactive) in the experiment with NCI-H522; 24.3 µM (inactive) with HOP-62. Moreover, the GI50 in the experiment on U-251 is 28.4 µM (inactive).
`O=C1N(c2ccccc2)N=C2c3ccncc3C3=NN(c4ccccc4)C(=O)C123` (configuration not stated): the GI50 was 14.5 µM (inactive) in the experiment on SF-539; 4.36 µM (inactive) in the experiment with MDA-MB-435; > 100 µM (inactive) with 786-0; 2.35 µM (inactive) in the experiment with UO-31; 2.12 µM (inactive) in the experiment on COLO 205; 0.619 µM (active) in the experiment on HL-60. Further, the GI50 is > 100 µM (inactive) in the experiment on OVCAR-8; > 27.4 µM (inactive) in the experiment with NCI/ADR-RES; > 43.6 µM (inactive) in the experiment on ACHN; > 100 µM (inactive) in the experiment with HOP-92; > 100 µM (inactive) with SNB-19; > 100 µM (inactive) with NCI-H226. Moreover, the GI50 with SNB-75 is > 100 µM (inactive); with PC-3 it was 2.43 µM (inactive); in the experiment with SK-MEL-5 it was 7.55 µM (inactive); in the experiment with SW-620, 2.53 µM (inactive); in the experiment with NCI-H522 it was > 100 µM (inactive); in the experiment on HOP-62 it was > 100 µM (inactive). Besides, the GI50 in the experiment on U-251 was > 100 µM (inactive).
Turning to `O=S(=O)(O)c1ccc2c(/N=N\c3cccc4ccccc34)c(O)c(S(=O)(=O)O)cc2c1`, the GI50 in the experiment with SF-539, in the experiment on MDA-MB-435, in the experiment with 786-0, in the experiment with UO-31, with COLO 205 and in the experiment on HL-60 was > 100 µM (inactive) throughout. Moreover, the GI50 with OVCAR-8, in the experiment on NCI/ADR-RES, in the experiment with ACHN, in the experiment on HOP-92, in the experiment with SNB-19 and with NCI-H226 was > 100 µM (inactive) in each case. The GI50 with SNB-75, in the experiment with PC-3, with SK-MEL-5, in the experiment on SW-620, with NCI-H522 and in the experiment on HOP-62 was > 100 µM (inactive) throughout. Moreover, in the experiment on U-251, the GI50 was > 100 µM (inactive).

Source of the values: ChEMBL document CHEMBL1201862, “PubChem BioAssay data set” (2004).
